Test results reported in ChEMBL document CHEMBL1130642, “Conformationally constrained NO synthase inhibitors: rigid analogs of L-N-iminoethylornithine” (Bioorg Med Chem Lett, 1998).

Molecular target: T1, Nitric oxide synthase, inducible (Mus musculus, UniProt P29477)
T1 sequence (P29477 whole entry): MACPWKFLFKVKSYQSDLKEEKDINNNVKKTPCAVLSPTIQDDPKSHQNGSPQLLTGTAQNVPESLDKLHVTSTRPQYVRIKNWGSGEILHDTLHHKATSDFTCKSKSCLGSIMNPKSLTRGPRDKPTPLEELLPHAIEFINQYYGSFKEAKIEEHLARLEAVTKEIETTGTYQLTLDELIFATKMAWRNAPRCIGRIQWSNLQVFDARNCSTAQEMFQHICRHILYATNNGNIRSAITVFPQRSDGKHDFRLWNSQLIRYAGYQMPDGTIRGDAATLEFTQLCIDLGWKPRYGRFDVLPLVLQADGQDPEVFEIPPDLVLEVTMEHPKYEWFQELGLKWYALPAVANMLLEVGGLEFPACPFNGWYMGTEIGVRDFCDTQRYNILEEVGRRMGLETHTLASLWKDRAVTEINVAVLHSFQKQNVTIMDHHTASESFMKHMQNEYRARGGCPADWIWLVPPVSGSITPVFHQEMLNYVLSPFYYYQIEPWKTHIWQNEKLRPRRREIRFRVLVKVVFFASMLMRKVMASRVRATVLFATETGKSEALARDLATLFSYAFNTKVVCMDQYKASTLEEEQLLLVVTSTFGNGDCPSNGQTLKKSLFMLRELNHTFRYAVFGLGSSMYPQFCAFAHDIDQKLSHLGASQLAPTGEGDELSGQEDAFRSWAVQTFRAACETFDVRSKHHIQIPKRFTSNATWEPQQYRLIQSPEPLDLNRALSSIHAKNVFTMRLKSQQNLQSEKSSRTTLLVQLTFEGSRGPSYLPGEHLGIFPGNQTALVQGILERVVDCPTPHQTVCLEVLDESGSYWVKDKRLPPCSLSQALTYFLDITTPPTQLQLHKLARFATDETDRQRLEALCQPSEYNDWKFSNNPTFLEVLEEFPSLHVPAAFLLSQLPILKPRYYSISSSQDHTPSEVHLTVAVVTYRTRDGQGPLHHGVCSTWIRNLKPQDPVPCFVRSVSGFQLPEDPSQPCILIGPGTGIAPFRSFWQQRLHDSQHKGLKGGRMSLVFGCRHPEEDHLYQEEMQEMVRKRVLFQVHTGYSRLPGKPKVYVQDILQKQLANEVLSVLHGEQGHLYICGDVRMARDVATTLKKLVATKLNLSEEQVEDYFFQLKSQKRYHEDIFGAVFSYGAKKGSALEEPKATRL
Assay: Compound was evaluated for inhibitory activity against iNOS obtained from RAW 264.7 cells.
Assay type: cell-based

Structure (SMILES) | IC50
COC(=O)[C@@H](N)[C@H]1CC[C@H](/N=C(/C)N)C1 | 50 µM
COC(=O)[C@@H](N)[C@@H]1CC[C@H](/N=C(/C)N)C1 | > 200 µM
COC(=O)[C@@H](N)[C@@H]1CC[C@@H](N=C(C)N)C1 | > 200 µM
CC(=N)N1CC[C@@H](C[C@H](N)C(=O)O)C1 | > 200 µM
COC(=O)[C@@H](N)[C@H]1CC[C@@H](N=C(C)N)C1 | 47 µM

Compounds with a lower IC50, results first:

IC50 | Structure (SMILES)
40 µM | CC(=N)N1CC[C@H](C[C@H](N)C(=O)O)C1
36 µM | NC1=NC[C@@H](C[C@H](N)C(=O)O)C1
25 µM | NC1=NC[C@H](C[C@H](N)C(=O)O)C1
9 µM | CC(=N)NCCC[C@H](N)C(=O)O [L-NIO]
